Laboratory results as given in patent US20250346588A1, “IMIDAZOPYRIDINE AND OXAZOLOPYRIDINE DERIVATIVES AND ANALOGS THEREOF, METHODS OF PREPARATION THEREOF, METHODS OF HIF-1/2A PATHWAY INHIBITION, AND INDUCTION OF FERROPTOSIS” (KUDA THERAPEUTICS, INC., priority 2022, published 2025).

Legend:
786-0 cells = test: TBARS assay of lipid peroxidation (MDA); type: cell-based, human; details: 48h treatment
Experimental: Malondialdehyde (MDA) is an end product of lipid peroxidation products and can be used to indicate lipid peroxidation, which is a hallmark of ferroptosis. MDA adducts were quantitated in cells and tumor tissue using the TBARS-TCA Method kit (Cat 700870, Cayman Chemicals, Ann Arbour Michigan) according to the manufacturer's protocol. Briefly, 786-0 cells were seeded at 1.75×10E6 cells in T75 cm^2 flasks, allowed to adhere overnight in a humidified incubator at 37° C. with 5% CO2, then treated with test compounds for 48 h, RSL3 (as positive control for 6h) or DMSO control (volume of DMSO kept constant for all flasks). Cells were detached by trypsinization, pelleted by centrifugation, washed in PBS twice, resuspended in 200 μL PBS, then sonicated for 3 minutes in a sonicating water bath. Representative data showing effects of 26HCL or 62TFA in comparison to RSL3, a classical ferroptosis inducer, is shown in FIG. 5. For MDA quantitation in tumor chunks, 20-50 mg of tumor tissue was homogenized in 200-500 μL of PBS, then sonicated for 5 minutes in a sonicating water bath. The cell or tumor lysates were subjected to the colorimetric detection methods described in manufacturer's protocol. MDA concentration of cells was determined in comparison to a standard curve of MDA stock solution provided by the manufacturer. Data was plotted using Prism GraphPad 9.3.1 Software. […]

ISCA2 = molecular target: T1, ISCA2 (Homo sapiens, UniProt Q86U28); test: Thermal shift assay with recombinant ISCA2 (SYPRO Orange); type: binding
T1 construct: His6 (N); made in house; host or cells: E. coli Rosetta (DE3)
T1 sequence (Q86U28 9-154): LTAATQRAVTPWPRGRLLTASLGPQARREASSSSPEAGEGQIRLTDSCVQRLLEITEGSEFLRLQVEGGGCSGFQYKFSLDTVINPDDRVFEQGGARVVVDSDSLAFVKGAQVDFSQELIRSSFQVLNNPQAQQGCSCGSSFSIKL
Experimental: Thermal shift assays were performed by monitoring the change in protein melting temperature (Tm) in the absence or presence of test compounds, using the hydrophobic protein binding dye, SYPRO Orange (S6650, Thermo Fisher Scientific), measured using the LightCycler 480 (Roche Life Sciences, Indianapolis, IN) according to the manufacturer's protocol. Recombinant ISCA2 was produced by expressing amino acid residues 9-154 of ISCA2 (ISCA2 lacking its mitochondrial localization sequence) in the pET28 vector containing an N-terminal His6 tag in Rosetta (DE3) competent cells (Novagen, Millipore Sigma). ISCA2 production was induced by treating ISCA2 transformed log phase cells with 0.25 mM IPTG for 4 hours at 18° C. ISCA2 was purified using Ni^2+ affinity purification according to standard protocols and eluted in 50 mM Tris-C1 pH7.4, 150 mM NaCl, 5 mM DTT. Thermal shift assays were performed in 384-well plates using 1 μl of a 10× concentration of SYPRO Orange, 8 μl of ISCA2 (4 μg protein) and 1 μl of 1-2 mM stock of test compound per well. The LightCycler was used according to the following setup: LightCycler 480 Instrument Temperature Setup: First target of 20° C., with a Hold of 15 seconds; second target of 95° C., with Acquisition Mode of Continuous, and 10 acquisitions per degree c.; and third target of 20° C., with a Hold of 15 seconds. Tms were determined using Roche Protein Melting Analysis Software. Representative data are shown in FIGS. 6 and 7 using compound 1 and 26HCL at 200 and 100 µM final concentration respectively. […] These findings are supported by studies showing that re-expression of VHL (which increases ISCA2) and overexpression of ISCA2 itself, promotes the resistance of cells to the compounds (shown in FIG. 8).

IRP2 and GPX4 = test: Western blots for cellular iron-sensing machinery (IRP2, GPX4); type: cell-based, human
Experimental: Western blots were performed to determine the effects of the compounds on levels of HIF-2α and other relevant proteins, whereas qPCR was performed to determine the effects of compounds on transcript levels of HIF target genes. 786-0 or RCC10 cells were plated at 1×10E5 cells/well in 2 ml DMEM with 10% FBS/well in 6-well tissue culture plates. Cells were allowed to adhere overnight in a humidified incubator at 37° C. with 5% CO2, after which the appropriate concentrations of compounds in DMSO were added. DMSO concentrations were kept constant in all wells. After 24 h exposure to the compounds, cells were lysed and subjected to western blotting according to standard protocols. Antibodies for HIF-1α and HIF-2α and GAPDH were purchased from Cell Signaling Technology (Danvers, MA), whereas antibodies to IRP2 and pVHL were from Santa Cruz Biotechnology (Dallas, TX), and GPX4 antibody was from R&D Systems, Inc (Minneapolis, MN). Representative data in FIG. 2 show a dose-dependent effect of compounds in decreasing HIF-1/2α. Compounds also impact cellular iron sensing given by increased IRP2, which taken together indicate that cells sense decreased amounts of available iron, which triggers the iron starvation response initiated by IRP2 stabilization. Representative data shown in FIG. 3D show a dose dependent effect of the compounds on GPX4, which may indicate decreased resistance to ferroptosis. […] The data also show increased expression of ISCA2 with pVHL re-expression.

Tm of ISCA2 in compound-treated wells (ISCA2; 100 μM compound, control wells 55.02±0.2): 56.3±0.02 °C
Compound: COc1ccc(-c2nnc(Nc3nc4c(OC)nccc4[nH]3)o2)cc1OC [Compound 26HCL, N-(4-Methoxy-1H-imidazo[4,5-c]pyridin-2-yl)-5-(3,4-dimethoxyphenyl)-1,3,4-oxadiazol-2-amine]
lipid peroxidation (MDA-TBA adducts) (786-0 cells): induce lipid peroxidation to an extent comparable to the ferroptosis inducer RSL3 | change in melting temperature of ISCA2 (in words) (ISCA2; compound 1 and 26HCL at 200 and 100 μM final concentration respectively): significant change in melting temperature of ISCA2 | effect on IRP2 protein (Western blot) (IRP2 and GPX4; 786-0 or RCC10 ccRCC cells, 24h, relative to GAPDH): increases IRP2 | effect on IRP2 and GPX4 protein (Western blot) (IRP2 and GPX4; higher concentrations of compound, FIG. 3D): decrease in IRP2 and GPX4
